The assay concerns the target T1, p38 (Homo sapiens, UniProt Q16539).
T1 construct: made in house; host or cells: Trichoplusia ni (Tn-368) High-Five insect cells infected with recombinant baculovirus (virus made in Sf9)
Kind of assay: p38 inhibition assay: inhibition of phosphorylation of EGF receptor peptide. The assay is classed as biochemical. The note with it: activated p38 (5 nM), EGF receptor peptide 200 μM, ATP 100 μM, 30 min at 30° C., pH 7.6, HPLC. From the text:
Two splice variants of human p38 kinase, CSBPl and CSBP2, have been identified. Specific oligonucleotide primers were used to amplify the coding region of CSBP2 cDNA using a HeLa cell library (Stratagene) as a template. The polymerase chain reaction product was cloned into the pET-15b vector (Novagen). The baculovirus transfer vector, pVL-(His)6-p38 was constructed by subcloning a XbaI-BamHI fragment of pET15b-(His)6-p38 into the complementary sites in plasmid pVL1392 (Pharmingen).
P38 was activated by combining 0.5 mg/ml p38 with 0.005 mg/ml DD-double mutant MKK6 in Buffer B+10 mM MgCl2, 2 mM ATP, 0.2 mM Na2VO4 for 30 minutes at 20° C. The activation mixture was then loaded onto a 1.0×10 cm MonoQ column (Pharmacia) and eluted with a linear 20 column volume gradient to 1.0 M NaCl in Buffer B. The activated p38 eluted after the ADP and ATP. The activated p38 peak was pooled and dialyzed against buffer B+0.2 mM Na2VO4 to remove the NaCl. The dialyzed protein was adjusted to 1.1M potassium phosphate by addition of a 4.0M stock solution and loaded onto a 1.0×10 cm HIC (Rainin Hydropore) column previously equilibrated in Buffer D (10% glycerol, 20 mM β-glycerophosphate, 2.0 mM DTT)+1.1MK2HPO4. The protein was eluted with a 20 column volume linear gradient to Buffer D+50 mM K2HPO4. The double phosphorylated p38 eluted as the main peak and was pooled for dialysis against Buffer B+0.2 mM Na2VO4. The activated p38 was stored at -70° C.
Inhibition of Phosphorylation of EGF Receptor Peptide
This assay was carried out in the presence of 10 mM MgCl2, 25 mM β-glycerophosphate, 10% glycerol and 100 mM HEPES buffer at pH 7.6. For a typical IC50 determination, a stock solution was prepared containing all of the above components and activated p38 (5 nM). The stock solution was aliquotted into vials. A fixed volume of DMSO or inhibitor in DMSO (final concentration of DMSO in reaction was 5%) was introduced to each vial, mixed and incubated for 15 minutes at room temperature. EGF receptor peptide, […], a phosphoryl acceptor in p38-catalyzed kinase reaction (1), was added to each vial to a final concentration of 200 μM. The kinase reaction was initiated with ATP (100 μM) and the vials were incubated at 30° C. After 30 minutes, the reactions were quenched with equal volume of 10% trifluoroacetic acid (TFA).
The phosphorylated peptide was quantified by HPLC analysis. Separation of phosphorylated peptide from the unphosphorylated peptide was achieved on a reverse phase column (Deltapak, 5 μm, C18 100D, part no. 011795) with a binary gradient of water and acteonitrile, each containing 0.1% TFA. IC50 (concentration of inhibitor yielding 50% inhibition) was determined by plotting the % activity remaining against inhibitor concentration.

T1 sequence (Q16539 whole entry): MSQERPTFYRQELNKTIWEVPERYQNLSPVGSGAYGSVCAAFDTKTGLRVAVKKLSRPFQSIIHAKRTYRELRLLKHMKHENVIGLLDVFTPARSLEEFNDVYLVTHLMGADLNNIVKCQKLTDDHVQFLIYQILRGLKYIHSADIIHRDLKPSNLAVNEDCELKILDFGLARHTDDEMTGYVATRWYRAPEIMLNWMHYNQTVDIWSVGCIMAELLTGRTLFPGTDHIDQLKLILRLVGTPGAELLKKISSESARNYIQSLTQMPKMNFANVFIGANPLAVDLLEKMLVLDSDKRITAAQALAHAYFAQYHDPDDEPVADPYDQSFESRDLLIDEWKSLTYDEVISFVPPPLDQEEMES

Take `Cc1cc(Cl)c([N+](=O)[O-])cc1NC(=O)Nc1ccccc1` [Compound 3]: it took 370 nM to reach half-maximal inhibition (IC50).

The molecule `COc1cc(Cl)c(C)cc1NC(=O)Nc1ccccc1` [Compound 4] returned an IC50 of 100 nM.

`Cc1cc(C)c(NC(=O)Nc2ccccc2)cc1C` [Compound 10] yielded an IC50 of 4200 nM.

Take `COc1cc(OC)c(NC(=O)Nc2ccccc2)cc1Cl` [Compound 12]: the concentration for half-maximal inhibition (IC50) turned out to be 380 nM.

Molecule `COc1cc([N+](=O)[O-])c(C)cc1NC(=O)Nc1ccccc1` [Compound 13] registered an IC50 of 140 nM.

Turning to `Cc1cc(NC(=O)Nc2ccccc2)c(Cl)cc1F` [Compound 15], the IC50 came to 5800 nM.

The molecule `COc1cc(OC)c(NC(=O)Nc2ccc(Oc3ccccc3)cc2)cc1Cl` [Compound 20] had a 50% inhibitory concentration (IC50) of 8000 nM.

In turn, `COc1cc(OC)c(NC(=O)Nc2cccc(Oc3ccccc3)c2)cc1Cl` [Compound 22] showed an IC50 of 1900 nM.

Molecule `COc1cc(OC)c(NC(=O)Nc2ccc(Cl)c(Cl)c2)cc1Cl` [Compound 24] yielded an IC50 of 500 nM.

On to `COc1cc(OC)c(NC(=O)Nc2ccccc2)cc1Cl` [Compound 25], for which the IC50 came to 1000 nM.

`COc1cc(OC)c(NC(=O)Nc2ccccc2O)cc1Cl` [Compound 28] yielded a half-inhibitory concentration (IC50) of 7400 nM.

For `COc1cc(OC)c(NC(=O)Nc2ccc(F)cc2)cc1Cl` [Compound 29], the IC50 was 1450 nM.

Take `COc1cc(OC)c(NC(=O)Nc2ccc(Cl)cc2F)cc1Cl` [Compound 30]: the concentration for half-maximal inhibition (IC50) was determined as 1200 nM.

In turn, `COc1cc(OC)c(NC(=O)Nc2ccccc2F)cc1Cl` [Compound 31] displayed an IC50 of 500 nM.

The molecule `COc1cc(OC)c(NC(=O)Nc2ccc(F)c(F)c2)cc1Cl` [Compound 33] yielded an IC50 of 1820 nM.

With `COc1cc(OC)c(NC(=O)N(CC(=O)O)c2ccccc2)cc1Cl` [Compound 34], the IC50 stood at 19000 nM.

Molecule `COc1cc(OC)c(NC(=O)Nc2cccc(F)c2)cc1Cl` [Compound 35] registered an IC50 of 630 nM.

`COc1cc(OC)c(NC(=O)Nc2cc(C)ccc2Cl)cc1Cl` [Compound 37] yielded an IC50 of 5100 nM.

`COc1cc(OC)c(NC(=O)Nc2ccc3c(c2)OCO3)cc1Cl` [Compound 40] gave an IC50 of 1500 nM.

`COc1cc(Cl)c(C)cc1NC(=O)Nc1ccccc1` [Compound 61] gave an IC50 of 140 nM.

Take `O=C(Nc1ccccc1)Nc1ccc(Cl)c(Cl)c1` [Compound 62]: inhibition was half-maximal at 5600 nM (IC50).

`O=C(Nc1cccc(C(=O)O)c1)Nc1ccc(Cl)c(Cl)c1` [Compound 63] showed an IC50 of 5800 nM.

For the molecule `O=C(Nc1ccc(Cl)c(Cl)c1)Nc1ccc(Cl)c(Cl)c1` [Compound 64], the concentration for half-maximal inhibition (IC50) was found to be 130 nM.

The molecule `NC(=O)c1ccccc1NC(=O)Nc1ccc(Cl)c(Cl)c1` [Compound 107] showed an IC50 of 100 nM.

`COc1cc(C)cc(NC(=O)Nc2ccc(Cl)c(Cl)c2)c1` [Compound 118] showed an IC50 of 14700 nM.

For `COC(=O)c1ccccc1NC(=O)Nc1ccc(Cl)c(Cl)c1` [Compound 119], the midpoint of inhibition, the IC50, lay at 6300 nM.

The molecule `CCOc1ccccc1NC(=O)Nc1ccc(Cl)c(Cl)c1` [Compound 121] registered an IC50 of 2200 nM.

Turning to `O=C(Nc1ccc(Cl)c(Cl)c1)Nc1ccccc1Cl` [Compound 122], the half-inhibitory concentration (IC50) amounted to 15100 nM.

`O=C(Nc1ccc(Cl)c(Cl)c1)Nc1ccc(Br)cc1C(=O)O` [Compound 125]: the half-maximal inhibitory concentration (IC50) was 8400 nM.

`O=C(Nc1ccc(Cl)c(Cl)c1)Nc1ccc2c(c1)OCCO2` [Compound 126] showed a half-inhibitory concentration (IC50) of 5600 nM.

For the molecule `O=C(Nc1ccc(Cl)c(Cl)c1)Nc1cccc2cccnc12` [Compound 131], 6300 nM corresponded to half-maximal inhibition (IC50).

As a reminder, the IC50 is the concentration needed to halve the response being measured. Low readings indicate greater potency in that assay, high ones weaker potency in that assay.

The values above are taken from patent publication US6093742A, “Inhibitors of p38” (Vertex Pharmaceuticals, Inc., priority 1997, dated 2000).
